From patent US20070043512A1, “Therapeutic and prophylactic compositions and uses therefor” (priority 2003, published 2007)
“And” between values parts separate entries of the source, which are not always exact repeats. Identical values can stand only once. “Also recorded” adds a separate entry of the source.

How the values were obtained:
Format in all cases: cell-based, human
aP2 gene expression [1] = experiment: Real-time PCR, aP2 gene expression in NHBE cells; details: for Effect on aP2 expression: NHBE (HBE) cells, stimuli for 18 h, real-time PCR (FIG. 2); for Fold-Change aP2 gene expression (real-time PCR): NHBE cells, 10 ng/ml cytokine, 18 h, vs unstimulated, mean of two RNA sets used in arrays
Description: (§1) When NHBE cells were 80% confluent and between passage 7 and 8, they were washed in PBS (Gibco) and starved for 24 h in Clonetics bronchial epithelial cell basal medium (BEBM) containing 0.1% w/v BSA.
(§2) Total RNA was isolated from cells using the RNeasy Total RNA Isolation Kit (Qiagen, Chatswort, Calif.) or Trizol (Invitrogen, CA) as per the manufacturer's instructions.
(§3) cDNA was made using Reverse-IT RTase Blend Kit (ABgene, UK) or Avian myeloblastosis virus Reverse Transcriptase (Promega, Madison, Wis.) according to manufacturer's instructions. Oligo-p(dt)15 primer (Roche Molecular Biochemicals) was used at 1 μM in both cDNA preparation methods. Following cDNA synthesis, 1 μl of cDNA template was used for each PCR. Real-time PCR was conducted using Light Cycler-FastStart DNA Master SYBR Green I kit (Roche Molecular Biochemicals) according to manufacturer's specifications using 2 mM MgCl2 and 1 μM primers. Human aP2 forward and reverse primers and FABP-5 forward and primers were designed from Genbank sequences using Primer3 software (Rozen and Skaletsky, Methods Mol. Biol. 132: 365-386, 2000):
(§4) After an initial denaturation for 10 min at 95° C., the samples were run for 40 cycles at 95° C. (15 s), 63° C. (5 s), and 72° C. (10 s). At the end of each cycle, the fluorescence was measured in a single step in channel F1. After the 40th cycle, the specimens were heated to 95° C. and cooled to 65° C. for 15 s. All heating and cooling steps were performed with a slope of 20° C./sec. The temperature was then raised to 95° C. at a rate of 0.1° C./sec and fluorescence was measured continuously (channel F1) to obtain a melting curve for the PCR products. Each gene was normalized to a housekeeping gene GAPDH before fold change was calculated (using crossing point values) to account for variations between different samples. The aP2 PCR product was confirmed by size on a 2% w/v agarose gel and by sequencing at Sydney University Prince Alfred Macromolecular Analysis Centre, NSW, Australia.
Using the same RNA samples as were used for the microarray experiments, aP2 gene expression was analysed using real-time PCR. […] Data are the mean from the two sets of RNA that were used in the array experiments.

FABP-5 gene expression [2] = experiment: Real-time PCR, FABP-5 (mal1) gene expression in NHBE cells; details: for Effect on FABP-5 (mal1) expression, real-time PCR: NHBE (HBE) cells, 10 ng/ml (FIG. 3)
Description: as §1, §2, §3, §4

aP2 protein expression = experiment: Immunofluorescent staining of aP2 protein in NHBE cells; details: NHBE (HBE) cells, 10 ng/ml, 24 h
Description: NHBE cells were grown in chamber slides and treated with culture medium alone, or with medium supplemented with 10 ng/ml IL-4 or 10 ng/ml IL-13. After 24 h, the culture medium was removed and the cells were air-dried for 30 min. The cells were fixed in 1% v/v paraformaldehyde for 20 min at room temperature. The slides were washed in PBS and the cells were permeabilised in 70% v/v ethanol at −20° C. for 20 min. The cells were washed in PBS-Triton for 5 min, and then blocked for 60 min with 10% v/v normal goat serum in 2% v/v BSA/Tris-buffered saline (TBS). The normal goat serum was removed and […] (1:1000 dilution in 2% BSA/TBS) or rabbit isotype control (1:4 dilution; Zymed) was added. The slides were incubated overnight at room temperature, washed 3×5 min in TBS-Triton (TBS-T), and incubated with secondary Ab (TRITC-conjugated anti-rabbit Ig; dilution 1:100) for 1 h at room temperature. The slides were washed in TBS-T for 5 min, and cover-slipped after the addition of Vectashield. The slides were examined on a confocal microscope.

aP2 gene expression [3] = experiment: Affymetrix U95A microarray, aP2 gene expression in stimulated NHBE cells; design: key to Regulation of aP2 gene expression: I, increased; D, decreased; NC, no change; details: 18 h; for Fold-Change aP2 gene expression: NHBE cells, 10 ng/ml cytokine, vs unstimulated cells, mean of both micro-array experiments; for Fold change aP2 gene expression / Regulation of aP2 gene expression: NHBE, 10 ng/ml, vs ctrl, individual array comparisons
Description: NHBE primary cell lines were purchased from Clonetics (San Diego, Calif.). Both NHBE cell lines, lot 8F1142 and 7F1482, were isolated […]. NHBE cells were maintained in Clonetics bronchial epithelial growth media (BEGM), which included supplements of 52 μg/ml bovine pituitary extract, 0.5 μg/ml hydrocortisone, 0.5 μg/ml human recombinant epidermal growth factor, 0.5 μg/ml epinephrine, 10 μg/ml transferrin, 5 μg/ml insulin, 0.1 μg/ml retinoic acid, 6.5 μg/ml triiodothryonine, 50 μg/ml gentamycin and 50 μg/ml amphotericin B (Clonetics). Medium was replaced every three to four days. When confluent, cells were subcultured at a ratio of 1:3.
as §1
A preliminary time course experiment in IL-4 and IL-13 stimulated NHBE identified 18 h as a time point associated with strong gene regulation and this time point was selected for subsequent analysis. Gene expression in unstimulated- and IL-4- and IL-13-stimulated NHBE was measured using Affymetrix U95A Gene Chips. The experiment was performed twice, using two independent NHBE lines. One novel finding was increased expression of the adipocyte gene aP2 in the cytokine stimulated NHBE cells (Table 3).
NHBE cells were stimulated with 10 ng/ml IL-4 or 10 ng/ml IL-13. After 18 h, gene expression in these cells, and in unstimulated NHBE cells, was analysed using Affymetrix U95A chips. The fold-change in gene expression following cytokine stimulation compared to unstimulated NHBE cells is shown. Data are the mean of both micro-array experiments.
(§5) Depending on the quantity of RNA available, cRNA was prepared according to the GeneChip Expression Analysis Technical Manual (Array experiment 1; Affymetrix, Santa Clara, Calif.) or the cRNA methods published in Baugh et al., Nucleic Acids Res. 29(5): E29, 2001 (Array experiment 2). The GeneChip Expression Analysis protocol involved cDNA synthesis from 20 μg of total RNA using a poly(T) primer containing a T7 RNA polymerase promoter (Geneworks, Australia):
(§6) cRNA was transcribed from cDNA and biotinylated using the BioArray High Yield RNA Transcript Labeling Kit (Enzo Diagnostics, Farmingdale, N.Y.). Twenty micrograms of cRNA was fragmented by heating at 94° C. for 35 min in fragmentation buffer (40 mM Tris acetate (pH 8.1), 125 mM KOAc, 30 mM MgOAc) prior to hybridization. For the small-scale cRNA amplification (Baugh et al., 2001, supra), cDNA synthesis volumes were different from the GeneChip Expression Analysis Technical Manual but reaction component concentrations, incubation times and temperatures were conserved. Five hundred nanograms of RNA was used and 15 μg cRNA was fragmented prior to hybridization.
(§7) Hybridization cocktails were then made by adding fragmented cRNA, control cRNAs, grid alignment oligonucleotides and blocking reagents. These mixtures were hybridised overnight (˜16 h) to individual Test3 (Affymetrix) arrays at 45° C., under constant rotation at 60 rpm. Washing and staining of the hybridized arrays were performed by an Affymetrix Fluidics Station, according to the manufacturer's protocols. Fluorescent signals were measured on the arrays using the Agilent GeneArray Laser Scanner and gene transcript levels were determined and scaled to 150 using algorithms in MicroArray Analysis Suite Software 5.0 (Affymetrix). For each array experiment, the hybridization cocktails met the test three criteria (background less then 150, GAPDH and β-actin 3′/5′ ratios less then three and similar scaling factors between samples), and were used to probe Affymetrix U95A GeneChips. Relative mRNA expression levels on the IL-4 and IL-13 stimulated NHBE arrays were expressed as plus or minus fold changes when compared to the control NHBE array.
Regulation of aP2 gene expression was examined for all comparison arrays in which aP2 expression was detected. […]

aP2 expression = aP2 expression in THP-1 cells; details: 10 ng/ml IL-4, 10 ng/ml IL-13 or 28 ng/ml IFN-γ (FIG. 6)
Description: FIG. 6 is a graphical representation showing aP2 expression in THP-1 cells stimulated with (A) 10 ng/ml IL-4, 10 ng/ml IL-13 or 28 ng/ml IFN-γ or (B) 50 ng/ml PMA. The data are mean±SEM from three independent experiments.
To address this issue, the effect of IL-4, IL-13 and IFN-γ on expression of aP2 in the human monocyte cell line THP-1 was examined.

FABP-5 gene expression [4] = experiment: Microarray, FABP-5 gene expression in NHBE cells; design: key to Regulation of FABP-5 gene expression: I, increased; D, decreased; NC, no change; details: for Effect on FABP-5 (mal1) expression, microarray: NHBE (HBE) cells; for Fold change FABP-5 gene expression / Regulation of FABP-5 gene expression: NHBE, 10 ng/ml, 18 h, vs ctrl
Description: as §1, §5, §6, §7
Positive/negative fold change indicates greater/lesser gene expression in the first-named array, respectively. I, increased; D, decreased; NC, no change. Where the same type of array comparison is listed more than once, this represents repeat experiments.

FABP-5 gene expression [5] = experiment: Microarray, FABP-5 gene expression in synovial fibroblasts (RA/OA synoviocytes); design: key: I, increased; D, decreased; NC, no change; details: 10 ng/ml, 4 h
FABP-5 gene expression [6] = experiment: Microarray, FABP-5 gene expression in bronchial smooth muscle cells (BSMC); design: key to Regulation of FABP-5 gene expression: I, increased; D, decreased; NC, no change; details: 10 ng/ml, 18 h, vs ctrl
aP2 gene expression [7] = experiment: Real-time PCR, aP2 gene expression in NHBE cells; details: NHBE (HBE) cells, subsequent experiment

## CCCCCCCCCCCCCC(=O)O[C@@H]1[C@@H](C)[C@@]2(O)[C@@H](C=C(CO)C[C@]3(O)C(=O)C(C)=C[C@@H]23)[C@@H]2C(C)(C)[C@]12OC(C)=O [PMA, phorbol myristate acetate, reference compound]
aP2 gene expression [1]
  Effect on aP2 expression: slight down-regulation; also recorded: slight downregulation

## IL-4: allergy-associated type-2 cytokine used as stimulus, 10 ng/ml (BD)
FABP-5 gene expression [2]
  Effect on FABP-5 (mal1) expression, real-time PCR: up-regulated; also recorded: upregulated
aP2 protein expression
  Intensity of aP2 staining vs unstimulated cells: considerably greater
  Nuclear localisation of aP2: significant nuclear localisation
aP2 gene expression [3]
  Fold-Change aP2 gene expression: 33.4
  Fold change aP2 gene expression: 48.5 and 18.4
  Regulation of aP2 gene expression: I
aP2 expression
  Effect on aP2 expression: stimulated aP2 expression
aP2 gene expression [1]
  Fold-Change aP2 gene expression (real-time PCR): 65
FABP-5 gene expression [4]
  Effect on FABP-5 (mal1) expression, microarray: mildly up-regulated
  Fold change FABP-5 gene expression: 1.4 and 2
  Regulation of FABP-5 gene expression: I
FABP-5 gene expression [5]; RA synoviocytes, vs RA ctrl
  Regulation of FABP-5 gene expression: NC

## IL-13: allergy-associated type-2 cytokine used as stimulus, 10 ng/ml (BD)
FABP-5 gene expression [2]
  Effect on FABP-5 (mal1) expression, real-time PCR: up-regulated; also recorded: upregulated
aP2 protein expression
  Intensity of aP2 staining vs unstimulated cells: considerably greater
  Nuclear localisation of aP2: significant nuclear localisation
aP2 gene expression [3]
  Fold-Change aP2 gene expression: 31.8
  Fold change aP2 gene expression: 45.3 and 18.4
  Regulation of aP2 gene expression: I
aP2 expression
  Effect on aP2 expression: stimulated aP2 expression
aP2 gene expression [1]
  Fold-Change aP2 gene expression (real-time PCR): 56
FABP-5 gene expression [6]
  Fold change FABP-5 gene expression: 1.7
  Regulation of FABP-5 gene expression: NC and I
FABP-5 gene expression [4]
  Effect on FABP-5 (mal1) expression, microarray: mildly up-regulated
  Fold change FABP-5 gene expression: 1.5
  Regulation of FABP-5 gene expression: I and NC

## Cc1cccc(Nc2cc(Cl)nc(SCC(=O)O)n2)c1C [WY14643]
aP2 gene expression [7]
  Effect on aP2 expression: little or no effect

## IL-1: cytokine Interleukin (IL)-1β used as stimulus, 10 ng/ml
aP2 gene expression [1]
  Effect on aP2 expression: no effect
FABP-5 gene expression [5]; RA synoviocytes, vs RA ctrl
  Regulation of FABP-5 gene expression: NC

## IL-6: cytokine stimulus, 5 ng/ml (BD)
aP2 gene expression [1]
  Effect on aP2 expression: no effect

## IFN-γ: prototypic type 1 cytokine, 28 ng/ml
FABP-5 gene expression [2]; HBE cells, summary statement, method not stated
  Effect on mal1 expression: down-regulated
aP2 expression
  Effect on aP2 expression: reduced expression
aP2 gene expression [1]
  Effect on aP2 expression: strongly down-regulated
aP2 gene expression [1]; listed as IFNg
  Effect on aP2 expression: down-regulated
aP2 gene expression [1]; listed as IFNγ
  Effect on aP2 expression: strongly downregulated

## TNFα
aP2 gene expression [1]
  Effect on aP2 expression: no effect
FABP-5 gene expression [5]; OA synoviocytes, vs OA ctrl
  Regulation of FABP-5 gene expression: NC
FABP-5 gene expression [5]; RA synoviocytes, vs RA ctrl
  Regulation of FABP-5 gene expression: NC

B1: IL-10: cytokine stimulus, 10 ng/ml (BD) (protein, UniProt P22301 19-178, looked up)
Interleukin-10: SPGQGTQSENSCTHFPGNLPNMLRDLRDAFSRVKTFFQMKDQLDNLLLKESLLEDFKGYLGCQALSEMIQFYLEEVMPQAENQDPDIKAHVNSLGENLKTLRLRLRRCHRFLPCENKSKAVEQVKNAFNKLQEKGIYKAMSEFDIFINYIEAYMTMKIRN
aP2 gene expression [1]
  Effect on aP2 expression: no effect
